Reference: US9808470B2, “Estrogenic components for use in the treatment of neurological disorders” (UNIVERSITE DE LIEGE, priority 2012, dated 2017)

Experiments:
[1] = tested on: Microtubule-associated protein 2 (MAP2); assay: Ex.8 neuroprotective HIE rat model: MAP2 staining; type: in vivo; conditions: 10 mg/kg/day E4
Experimental: Newborn rat pups were assigned to one of the following 14 groups from postnatal day 4 (FIG. 23(A)): Sham group (n=12), Vehicle group (n=17), 5 mg/kg/day E4 (n=13), 10 mg/kg/day E4 (n=10), 5 mg/kg/day E4+1.6 mg/kg/day PROG (n=11), 10 mg/kg/day E4+1.6 mg/kg/day PROG (n=11), 5 mg/kg/day E4+16 mg/kg/day PROG (n=11), 10 mg/kg/day E4+16 mg/kg/day PROG (n=11), 5 mg/kg/day E4+136 ng//kg/day E2 (n=11), 10 mg/kg/day E4+136 ng/kg/day E2 (n=11), 5 mg/kg/day E4+1.6 mg/kg/day PROG+136 ng/kg/day (n=13) E2, 10 mg/kg/day E4+1.6 mg/kg/day PROG+136 ng/kg/day E2 (n=16), 5 mg/kg/day E4+16 mg/kg/day PROG+136 ng/kg/day E2 (n=11), 10 mg/kg/day E4+16 mg/kg/day PROG+136 ng/kg/day groups (n=13). Intraperitoneal injections of the pups from study groups were performed from postnatal day 4 to postnatal day 7 inclusively. […]
The brain sections were processed for immunohistochemical detection of neuronal cytoskeletal disruption. […] Samples were analyzed with the aid of an image scanner (Nanozoomer Virtual Microscopy, Hamamatsu, Tokyo, Japan) and the ImageJ software (NIH, US). The positive areas in the ipsilateral and contralateral hemispheres were measured. The ratio of the MAP2 positive areas was calculated as the MAP2 positive area of the ipsilateral hemisphere divided by the MAP2 positive area of the contralateral hemisphere. […]

CD11b-positive cells = assay: Ex.6 IL-1β induced diffuse white matter injury mouse model: microglial phenotype gene expression (qRT-PCR); type: in vivo
Experimental: Experimental protocols were approved by the institutional guidelines of the Institut National de la Santé et de la Recherche Scientifique (Inserm, France), and met the guidelines for the United States Public Health Service's Policy on Humane Care and Use of Laboratory Animals (NIH, Bethesda, Md., USA). Experiments were performed using OF1 strain mice purchased from Charles River (L'Arbresle, France) and born in our animal facility. Animals were housed under a 12 h light-dark cycle, had access to food and water ad libitum. Sex was determined at birth and confirmed at sacrifice. To avoid any potential variability linked to sex to differences. only male pups were used. Mice received twice a day from P1 to P4 and once on P5 a 5 μl intraperitoneal injection containing either PBS alone (sham group) or 10 μg/kg/dose recombinant mouse IL-1β in PBS. Vehicle group received only IL-1β injections while 10 μg E4 (5 mg/kg) or 20 μg E4 (10 mg/kg) was added to IL-1β once a day from P1 to P5 for E4 treated groups. Pups were sacrificed 3 hours after the first intraperitoneal injection at P1, 3 hours after last treatment at P5 or at P10 by intracardiac perfusion with NaCl 0.9% after anaesthesia by inhaled isoflurane.
At P1 and P5, brains were collected for cell dissociation and CD11b-positive (P1 and P5) and O4-positive (P5) cell enrichment using a magnetic coupled antibody extraction technique (MACS), as previously described and according to the manufacturer's protocol (Miltenyi Biotec, Bergisch Gladbach, Germany). The CD11b antigen is expressed on the surface of microglial cells while the O4 antigen is expressed on the cell surface of pre-OLs (Back et al., 2001). Briefly, after removing the cerebellum and olfactory bulbs, brains were pooled (n=3 at P1 and n=2 at P5) and dissociated using the neural tissue dissociation kit containing papain. From the resulting brain homogenate CD11b-positive cells (P1) and O4-positive then CD11b-positive cells (P5) were enriched by MACS, using the anti-CD11b or anti-O4 MicroBeads. After elution the isolated cells were centrifuged for 5 min at 600 g at 4° C. and conserved at −80° C.
Preparation of samples for quantitative reverse-transcriptase polymerase-chain reaction (qRT-PCR), primer design, and PCR protocol, were similar to that previously described (Favrais et al., 2011; Chhor et al., 2013). Briefly, RNA extraction was performed by with RNeasy mini kit according to the manufacturer's instructions (Qiagen, Courtaboeuf, France). RNA quality and concentration were assessed by spectrophotometry with the Nanodrop™ apparatus (Thermoscientific, Wilmington, Del., USA). Total RNA (0.5-1 μg) was subjected to reverse transcription using the iScript™ cDNA synthesis kit (Bio-Rad, Marnes-la-Coquette, France). qPCR was using SYBR Green Supermix (Bio-Rad). The relative expression of genes of interest (GOI) were expressed relative to expression of the reference gene, ribosomal protein L13a (Rpl13a) for CD11b+ cells and Glyceraldehyde 3-phosphate dehydrogenase (GAPDH) for O4+ cells and anterior brains based on reference gene suitability testing. Analyses were performed with the Biorad CFX manager 2.1 software. The relative quantities are expressed as the specific ratio between the gene of interest and Rpl13 or GAPDH. The data are presented as relative mRNA units with respect to control values (expressed as a fold-difference with respect to the mean of sham values).

[2] = IL-1β P1 to P5 + E4 10 mg/kg, P5
[3] = IL-1β+E4 5 mg/kg ip, P1, 3 h post-treatment, vs IL-1β group
[4] = IL-1β+E4 5 and 10 mg/kg ip, P1, vs IL-1β group

## C[C@]12CC[C@@H]3c4ccc(O)cc4CC[C@H]3[C@@H]1[C@@H](O)[C@@H](O)[C@@H]2O [E4, 1,3,5(10)-estratrien-3,15α,16α,17β-tetrol]
[1]
  ratio of MAP2-positive area (ipsilateral/contralateral): 0.97±0.01
CD11b-positive cells; IL-1β P1 to P5 + E4 5 mg/kg, P5
  over-expression of IL1Rn (M2b): significantly limited
CD11b-positive cells; [2]
  inflammation induced over-expression of IL1Rn (M2b): prevented
  inflammation induced over-expression of IL4Ra (M2b): prevented
  inflammation induced over-expression of iNOS (M1): prevented
CD11b-positive cells; [3]
  expression of CD32 mRNA (M1): significantly down-regulated
  expression of CD86 mRNA (M1): significantly down-regulated
CD11b-positive cells; IL-1β+E4 10 mg/kg ip, P1
  expression of genes associated with the M2a repair/regeneration phenotype: non-significant trend to the up-regulation
CD11b-positive cells; IL-1β+E4 10 mg/kg ip, P1, vs IL-1β group
  expression of Ptgs2 mRNA (M1): significantly decreased
CD11b-positive cells; [4]
  expression of IL1RN (M2b): decreased
  expression of Sphk1 (M2b): decreased
  iNOS mRNA (M1): significantly decreased
